Source: paper PMC6522510 (Nature Communications, 2019)
Where two headings read alike, the source gives them in different places.

Experiments:
[1] = tested on: ML-2; format: cell-based; settings: Homo sapiens, 72 h, Cell Titer Glo
[2] = tested on: MOLM-13; format: cell-based; settings: Homo sapiens, 72 h, Cell Titer Glo
[3] = tested on: U937; format: cell-based; settings: Homo sapiens, U-937; 72 h, Cell Titer Glo
[4] = tested on: CMS; format: cell-based; settings: Homo sapiens; 72 h, Cell Titer Glo; read-out: IC50 CMS
[5] = tested on: MV4-11; format: cell-based; settings: Homo sapiens, 72 h, Cell Titer Glo
[6] = tested on: CHRF288-11; format: cell-based; settings: Homo sapiens; 72 h, Cell Titer Glo; read-out: IC50 CHRF288-11
[7] = tested on: THP-1; format: cell-based; settings: Homo sapiens, 72 h, Cell Titer Glo
[8] = tested on: U937; experiment: Secondary dose-response HTS, Cell Titer Glo; format: cell-based, human; settings: for EC50: Homo sapiens, U-937
[9] = tested on: CMK; experiment: Secondary dose-response HTS, Cell Titer Glo; format: cell-based, human; settings: CMK; for EC50: Homo sapiens
[10] = tested on: FLT3-ITD+ primary AML blast samples
[11] = tested on: CMS; experiment: Secondary dose-response HTS, Cell Titer Glo; format: cell-based, human; settings: Homo sapiens
[12] = tested on: MLLr primary AML blast samples; experiment: Ex vivo drug treatment of primary AML blasts on mesenchymal stromal cells; format: cell-based; settings: Homo sapiens; primary blasts on MSC, 96 h, range over patient samples
[13] = tested on: AMKL primary AML blast samples; experiment: as above; format: cell-based; settings: Homo sapiens; primary blasts on MSC, 96 h
[14] = tested on: ML2; experiment: Secondary dose-response HTS, Cell Titer Glo; format: cell-based, human; settings: ML-2; for EC50: Homo sapiens
[15] = tested on: MOLM-13; experiment: Secondary dose-response HTS, Cell Titer Glo; format: cell-based, human; settings: Homo sapiens, MOLM-13
[16] = tested on: CHRF288-11; experiment: Secondary dose-response HTS, Cell Titer Glo; format: cell-based, human; settings: for EC50: Homo sapiens
[17] = tested on: MV4-11; experiment: Secondary dose-response HTS, Cell Titer Glo; format: cell-based, human; settings: Homo sapiens, MV4-11
[18] = tested on: M07e; experiment: Secondary dose-response HTS, Cell Titer Glo; format: cell-based, human; settings: for EC50: Homo sapiens, M-07e
[19] = tested on: panel of 8 AML cell lines; experiment: Secondary dose-response HTS, whole panel; format: cell-based, human; settings: secondary HTS (Supplementary Data 2)
[20] = secondary high-throughput screen, U937, read-out: average effective concentration, U937
[21] = secondary high-throughput screen, read-out: average effective concentration, CMK
[22] = HTS, secondary high-throughput screen, CMS, read-out: average effective concentration, CMS
[23] = secondary high-throughput screen, read-out: average effective concentration, ML-2
[24] = secondary high-throughput screen, read-out: average effective concentration, MOLM-13
[25] = HTS, secondary high-throughput screen, CHRF288-11, read-out: average effective concentration, CHRF288-11
[26] = secondary high-throughput screen, read-out: average effective concentration, MV4-11
[27] = secondary high-throughput screen

Row | EC50 [8, 20] [nM] | IC50 [10] [nM] | IC50 [12] [nM] | IC50 [13] [nM] | EC50 [15, 24] [nM] | EC50 [17, 26] [nM] | SMILES | EC50 [9, 21] [nM] | EC50 [11, 22] [nM] | EC50 [14, 23] [nM] | EC50 [16, 25] [nM] | active cell lines out of 8 in HTS [19] | further results
1 |  |  |  |  |  |  | CC(=O)O[C@H]1C(=O)[C@@]2(C)[C@H]([C@H](OC(=O)c3ccccc3)[C@]3(O)C[C@H](OC(=O)[C@H](O)[C@@H](NC(=O)c4ccccc4)c4ccccc4)C(C)=C1C3(C)C)[C@]1(OC(C)=O)CO[C@@H]1C[C@@H]2O [Paclitaxel, paclitaxel] |  |  |  |  |  | IC50 [1]: 3.5 nM; IC50 [2]: 3 nM; IC50 [3]: 2.5 nM; IC50 [4]: 25.7 nM; IC50 [5]: 2.1 nM; IC50 [6]: 24.9 nM; IC50 [7]: 5.4 nM
2 | 10000 | 979 to 5260 | 1110 to 4000 | 5170 |  |  | CC(=O)c1c(C)c2cnc(Nc3ccc(N4CCNCC4)cn3)nc2n(C2CCCC2)c1=O [Palbociclib, reference compound] | 3500 | 9100 |  |  |  | 
3 |  | 3.2 to 16 | 46 to 1050 |  | > 10000 | 1 | CC1(C)CCC(CN2CCN(c3ccc(C(=O)NS(=O)(=O)c4ccc(NCC5CCOCC5)c([N+](=O)[O-])c4)c(Oc4cnc5[nH]ccc5c4)c3)CC2)=C(c2ccc(Cl)cc2)C1 [Venetoclax, reference compound] |  |  |  |  |  | average effective concentration, U937 ([8]; secondary high-throughput screen, U937): Inactive; average effective concentration, CMK [9, 27]: Inactive; average effective concentration, ML-2 [14, 27]: Inactive; EC50 ([11]; HTS, read-out: average effective concentration, CMS): > 10000 nM; average effective concentration, CHRF288-11 ([16]; secondary high-throughput screen, CHRF288-11): Inactive; average effective concentration, M07e ([18]; secondary high-throughput screen, M07e): Inactive
4 | 1 | 4.6 to 931 | 62 to 482 | 353 |  | 8 | CC[C@@H]1C(=O)N(C)c2cnc(Nc3ccc(C(=O)N[C@H]4CC[C@H](N5CCN(CC6CC6)CC5)CC4)cc3OC)nc2N1C(C)C [Volasertib, reference compound] | 15 | 1400 | 1 | 3200 | 7/8 | 
5 | 1 |  |  |  | 7 | 1 | CCN(CCCOc1ccc2c(Nc3cc(CC(=O)Nc4cccc(F)c4)n[nH]3)ncnc2c1)CCOP(=O)(O)O [barasertib, reference compound] | 35 |  | 1 |  | 3/8 | 
6 | 5 |  |  |  | 6 |  | COc1cc(OC)c(/C=C/S(=O)(=O)Cc2ccc(OC)c(NCC(=O)O)c2)c(OC)c1 [rigosertib, reference compound] | 3.61 | 11 | 15 | 17 | 7/8 | 

Row | SMILES | EC50 [8, 20] [nM] | IC50 [10] [nM] | IC50 [12] [nM] | IC50 [13] [nM] | EC50 [15, 24] [nM] | EC50 [17, 26] [nM] | EC50 [9, 21] [nM] | EC50 [11, 22] [nM] | EC50 [14, 23] [nM] | EC50 [16, 25] [nM] | active cell lines out of 8 in HTS [19] | further results
7 | C/C=C1\NC(=O)[C@H]2CSSCC/C=C/[C@H](CC(=O)N[C@H](C(C)C)C(=O)N2)OC(=O)[C@H](C(C)C)NC1=O [Romidepsin, reference compound] | 3.2 | 3.8 to 13 | 1.6 to 6 | 5 | 0.67 | 0.6 | 8 |  | 3.8 | 6.5 |  | EC50 ([8]; secondary HTS, 72 h, average of triplicate, read-out: EC50 U937): 3 nM; EC50 ([9]; secondary HTS, 72 h, average of triplicate, read-out: EC50 CMK): 10 nM; EC50 ([14]; secondary HTS, 72 h, average of triplicate, read-out: EC50 ML2): 4 nM; EC50 ([15]; secondary HTS, 72 h, average of triplicate, read-out: EC50 MOLM-13): 1 nM; EC50 ([11]; secondary HTS, 72 h, average of triplicate, read-out: EC50 CMS): 1 nM; EC50 ([16]; secondary HTS, 72 h, average of triplicate, read-out: EC50 CHRF288-11): 10 nM; EC50 ([17]; secondary HTS, 72 h, average of triplicate, read-out: EC50 MV4-11): 1 nM; EC50 ([18]; secondary HTS, 72 h, average of triplicate, read-out: EC50 M07e): 2 nM; EC50 ([18]; secondary high-throughput screen, […], read-out: average effective concentration, M07e): 1.7 nM
